# Reference: patent publication US4782074A (priority 1987, dated 1988)
# Tests used:
# Assay type in all cases: in vivo
# [1] = test system: Alternaria solani conidia; assay: Tomato Early Blight control (Example D); settings: 288 h, tomato seedlings, Bonny Best, inoculated 1 day after spray, relative to untreated check plants, read-out: % Control TEB
# Method: Compounds of the invention were tested for the control of the Tomato Early Blight organism Alternaria solani conidia. Tomato (variety Bonny Best) seedlings of 6- to 7-weeks old were used. The tomato plants were sprayed with a 250-ppm solution of the test compound in an acetone-and-water solution containing a small amount of a nonionic emulsifier. The sprayed plants were inoculated 1 day later with the organism, placed in the environmental chamber and incubated at 66° F. to 68° F. and 100% relative humidity for 24 hours. Following the incubation, the plants were maintained in a greenhouse for about 12 days. Percent disease control was based on the percent disease development on untreated check plants.
# Erysiphe polygoni = assay: Bean Powdery Mildew control (Example A); settings: 240 h, seedling bean plants, inoculated 1 day after spray, 10 days, relative to untreated check plants, read-out: % Control BPM
# Method: The compounds of the invention were tested for the control of the Bean Powdery Mildew organism Erysiphe polygoni. Seedling bean plants were sprayed with a 250-ppm solution of the test compound in acetone, water and a nonionic emusifier. The sprayed plants were then inoculated 1 day later with the organism. The plants were maintained for 10 days at temperatures of 68° F. at night with daytime temperatures of 72° F. to 80° F.; relative humidity was maintained at 40% to 60%. The percent disease control provided by a given test compound was based on the percent disease reduction relative to the untreated check plants.
# Septoria apii = assay: whole plant or invertebrate; settings: 336 h, read-out: % Control CLB
# Phytophthora infestans = assay: whole plant or invertebrate; settings: in Solanum lycopersicum, 168 h, read-out: % Control TLB
# Uromyces phaseoli tipica = assay: Leaf Rust / Bean Rust control (Example F); settings: 336 h, pinto bean plants, rated after about 14 days, relative to untreated check plants, read-out: % Control BR
# Method: The Leaf Rust test was made using pinto beans. The pathogen was Uromyces phaseoli tipica. The pinto bean plants were sprayed with a 250-ppm solution of the test compound in an acetone-water mixture containing a nonionic emulsifier. The treated plants were inoculated thereafter with the pathogen and then incubated in an environmental chamber for approximately 20 hours at 100% relative humidity and a temperature of 68° F. to 70° F. The plants were then removed from the chamber, allowed to dry, and then maintained in a greenhouse at a 60% to 80% relative humidity. The rate of infection on the leaves was made after about 14 days. The percent disease control provided by a given test compound was based on the percent disease reduction relative to untreated check plants.
# Plasmopara viticola = assay: Grape Downy Mildew control (Example E); settings: detached grape leaves, cultivar Emperor, relative to untreated check plants, read-out: % Control GDM
# Method: The compounds of the invention were tested for the control of the Grape Downy Mildew organism Plasmopara viticola. Detached leaves, between 70 mm and 85 mm in diameter, 7-week-old Vitis vinifera cultivar Emperor grape seedlings were used as hosts. The leaves were sprayed with a 250-ppm solution of the test compound in acetone. The sprayed leaves were dried, inoculated with a spore suspension of the organism, placed in a humid environmental chamber and incubated at 66° F. to 68° F. and about 100% relative humidity. After incubation for 2 days, the plants were then held in a greenhouse 7 to 9 days; then the amount of disease control was determined. The percent disease control provided by a given test compound was based on the percent disease reduction relative to untreated check plants.
# Piricularia oryzae = assay: whole plant or invertebrate; settings: Pyricularia oryzae, read-out: % Control RB
SMILES,pest or weed control at 250 ppm [1] [%],pest or weed control at 250 ppm (Erysiphe polygoni) [%],pest or weed control at 250 ppm (Septoria apii) [%],pest or weed control at 250 ppm (Phytophthora infestans) [%],pest or weed control at 250 ppm (Uromyces phaseoli tipica) [%],pest or weed control at 250 ppm (Plasmopara viticola) [%],pest or weed control at 625 ppm (Piricularia oryzae) [%]
CCCN(Cc1c(Cl)cccc1Cl)C(=O)c1cnccn1 [Compound 28],27,92,30,4,7,3,0
O=C(c1cnccn1)N(CCO)CCOc1c(Cl)cc(Cl)cc1Cl [Compound 31],42,0,0,0,0,29,0
CCCN(CCOc1ccc(C(C)(C)C)cc1)C(=O)c1cccnc1 [Compound 6],50,98,0,10,0,0,–
"CCCN(CCOc1c(Cl)cc(Cl)cc1Cl)C(=O)c1cncnc1 [Compound 2, N-(n-propyl), N-(5-pyrimidylcarbonyl)ethanolamine 2,4,6-trichlorophenylether]",98,100,93,0,0,3,38
CCCN(CCOc1c(C)cc(C)cc1C)C(=O)c1cnccn1 [Compound 15],67,44,15,0,0,0,29
"CCCN(CCOc1c(Cl)cc(Cl)cc1Cl)C(=O)c1cnccn1 [Compound 3, N-(n-propyl), N-(2-pyrazinylcarbonyl)ethanolamine 2,4,6-trichlorophenylether]",94,100,62,0,19,13,75
CCCN(CC(C)Cc1ccc(C(C)(C)C)cc1)C(=O)c1cnccn1 (centres unmarked) [Compound 24],8,72,17,4,0,7,0
CCCN(CCCc1c(Cl)cccc1Cl)C(=O)c1cnccn1 [Compound 25],29,28,8,0,0,0,0
CCCN(CC(C)Cc1ccc(C(C)(C)C)cc1)C(=O)c1cccnc1 (centres unmarked) [Compound 23],33,100,29,7,0,0,0
"CCCN(CCOc1c(Cl)cc(Cl)cc1Cl)C(=O)c1cccnc1 [Compound 1, N-(n-propyl), N-(3-pyridylcarbonyl)ethanolamine 2,4,6-trichlorophenylether]",96,100,46,0,0,50,86
CCCN(CCCc1ccc(Cl)cc1Cl)C(=O)c1cnccn1 [Compound 26],0,11,10,4,3,13,21
"CCCN(CCCc1c(Cl)cccc1Cl)C(=O)c1cccnc1 [Compound 22, N-[3-(2,6-dichlorophenyl)propyl], N-(n-propyl)nicotine amide]",88,44,38,0,0,7,0
CCCN(CCOc1c(Cl)cc(Cl)cc1Cl)C(=S)c1cnccn1 [Compound 18],–,54,85,0,0,43,–
CCCN(CCOc1c(Cl)cc(Cl)cc1Cl)C(=O)c1ccccn1 [Compound 9],0,0,9,0,50,19,10
"CCCN(C(=O)c1cccnc1)C(C)COc1c(Cl)cc(Cl)cc1Cl (centres unmarked) [Compound 20, N-(n-propyl), N-(3-pyridylcarbonyl)propanol-2-amine 2,4,6-trichlorophenylether]",–,93,0,0,23,7,0
"CCCN(CCSc1c(Cl)cccc1Cl)C(=O)c1cccnc1 [Compound 11, N-(n-propyl), N-(3-pyridylcarbonyl) 2-aminoethanethiol 2,6-dichlorophenylthioether]",60,58,0,0,0,13,29
CCCN(CCOc1ccc(Cl)cc1Cl)C(=O)c1cnccn1 [Compound 7],0,21,15,0,3,13,0
CCN(CCOc1c(Cl)cc(Cl)cc1Cl)C(=O)c1cccnc1 [Compound 35],30,100,98,0,0,41,96
CCCN(CCOc1c(Cl)cccc1Cl)C(=O)c1cncnc1 [Compound 13],97,81,80,4,0,10,–
CCCN(CCOc1ccc(C(C)(C)C)cc1)C(=O)c1cnccn1 [Compound 5],36,94,17,0,0,28,–
"CCCN(C(=O)c1cnccn1)C(C)COc1c(Cl)cc(Cl)cc1Cl (centres unmarked) [Compound 21, N-(n-propyl), N-(2-pyrazinylcarbonyl)propanol-2-amine 2,4,6-trichlorophenylether]",–,71,0,0,23,67,0
CCCN(Cc1c(Cl)cccc1Cl)C(=O)c1cccnc1 [Compound 29],50,48,0,0,0,27,–
